Test results reported in patent US9855253B2, “Pharmaceutical composition containing FK506 derivative for treating fungal infection caused by genus Cryptococcus and genus Candida and use thereof” (INTRON BIOTECHNOLOGY CO., LTD., priority 2014, dated 2018).

Legend:
Cryptococcus neoformans = assay: standard agar diffusion method (paper disk), antifungal activity; type: cell-based; details: for zone of inhibition at 10 µg/mL: Cryptococcus neoformans treated with 10 μg/ml, 6 mm disk, PDA medium, incubated 2-3 days, read-out: diameters of the inhibition zones; for inhibition zones at higher concentrations (FIGS. 1 and 2): concentrations of 10 μg/ml and 40 μg/ml
Description: The antifungal activities of FK506 derivatives against fungi such as Cryptococcus neoformans and Candida albicans, which are human pathogenic yeasts, were analyzed by the standard agar diffusion method (Murray et al., 1995 Manual of clinical microbiology (6th ed.), Washington, ASM Press, pp. 1275-1294), 100 μL of a standardized inoculam containing 10^7 CFU/ml, of a fungal suspension was uniformly plated in a Petri dish containing 20 mL of potato-dextrose agar (PDA) medium, and was dried for 5 minutes. A sterilized Whatman No. 1 filter paper disk baying a diameter of 6 mm was wet with each of 0.1 μg, 1 μg, 10 μg and 40 μg/ml of FK506 derivative dissolved in the same solvent as that used for extraction. As a control, an untreated disk and a disk wet with FK506 were used. Each plate was incubated at 30° C. and 37° C. for 2-3 days, and then the antifungal activity of each FK506 derivative was evaluated by comparing the diameters of inhibition zones against Cryptococcus neoformans and Candida albicans. The experiment for analysis of the antifungal activity was repeated at least three times. […] The diameters of the inhibition zones are shown in units of mm.

[1] = background statement; result in words; cited from earlier work
Candida albicans = assay: serum sensitivity of Candida albicans as a function of time (FIG. 3); type: cell-based; details: result in words
Text: FIG. 3 is a graph showing the inhibitory activity of a composition according to one embodiment of the present invention against Candida albicans as a function of time. FIG. 3 is a graph showing an increased or decreased change in the serum sensitivity of Candida albicans for 31-O-demethyl-FK506 that is FK506 derivative. Lower serum sensitivity with the passage of time indicates higher antifungal activity.

## C=CC[C@@H]1/C=C(\C)C[C@H](C)C[C@H](OC)[C@H]2O[C@@](O)(CC(=O)N3CCCC[C@H]3C(=O)O[C@H](/C(C)=C/C3CC[C@@H](O)[C@H](O)C3)[C@H](C)[C@H](O)CC1=O)[C@H](C)C[C@@H]2OC (stereo partly shown) [Formula (III), 9-deoxo-31-O-demethyl-FK506]
Cryptococcus neoformans
  zone of inhibition at 10 µg/mL: 21.6 mm
Cryptococcus neoformans; result in words
  inhibition zones at higher concentrations (FIGS. 1 and 2): large inhibition zones
  inhibitory activity against Cryptococcus neoformans (FIGS. 1 and 2): had inhibitory activity

## C=CC[C@@H]1/C=C(\C)C[C@H](C)C[C@H](OC)[C@H]2O[C@@](O)(C(=O)C(=O)N3CCCC[C@H]3C(=O)O[C@H](/C(C)=C/[C@@H]3CC[C@@H](O)[C@H](OC)C3)[C@H](C)[C@@H](O)CC1=O)[C@H](C)C[C@@H]2OC [FK506]
[1]
  toxicity or side effects relative to Cyclosporine A: comparable to Cyclosporine A
Cryptococcus neoformans
  zone of inhibition at 10 µg/mL: 16.8 mm

## C=CC[C@@H]1/C=C(\C)C[C@H](C)C[C@H](OC)[C@H]2O[C@@](O)(CC(=O)N3CCCC[C@H]3C(=O)O[C@H](/C(C)=C/C3CC[C@@H](O)[C@H](OC)C3)[C@H](C)[C@H](O)CC1=O)[C@H](C)C[C@@H]2OC (stereo partly shown) [Formula (II), 9-deoxo-FK506]
Cryptococcus neoformans
  zone of inhibition at 10 µg/mL: 21.6 mm
Cryptococcus neoformans; result in words
  inhibitory activity against Cryptococcus neoformans (FIGS. 1 and 2): had inhibitory activity

## C=CC[C@@H]1/C=C(\C)C[C@H](C)C[C@H](OC)[C@H]2O[C@@](O)(C(=O)C(=O)N3CCCC[C@H]3C(=O)O[C@H](/C(C)=C/C3CC[C@@H](O)[C@H](O)C3)[C@H](C)C(O)CC1=O)[C@H](C)C[C@@H]2OC (stereo in doubt) [Formula (I), 31-O-demethyl-FK506]
Candida albicans; from 6 hours after treatment
  inhibitory activity against Candida albicans compared with FK506, late time points (FIG. 3): maintained inhibitory activity higher than FK506
Candida albicans; serum sensitivity over time
  inhibitory activity against Candida albicans compared with FK506 (FIG. 3): almost equal to that of FK506
Cryptococcus neoformans
  zone of inhibition at 10 µg/mL: 26.4 mm
Cryptococcus neoformans; comparison with FK506, result in words
  inhibitory activity against Cryptococcus neoformans compared with FK506: inhibitory activity higher than FK506
Cryptococcus neoformans; result in words
  inhibition zones at higher concentrations (FIGS. 1 and 2): large inhibition zones
  inhibitory activity against Cryptococcus neoformans (FIGS. 1 and 2): had inhibitory activity
